Here are results for 19 compounds from ChEMBL document CHEMBL3351683, “Synthesis of lantadene analogs with marked in vitro inhibition of lung adenocarcinoma and TNF-α induced nuclear factor-kappa B (NF-κB) activation” (Bioorg Med Chem Lett, 2014).

pIC50: −log10 of the molar value. Active and inactive are the calls of the source. The rule behind the calls is not given here. Bounds are passed on as bounds.

The test system of one series is A549. Description: Cytotoxicity against human A549 cells after 48 hrs by MTT assay. It counts as functional, cell-based. Particulars: A549, 48 h.
For series [1], the target named is T1, Inhibitor of nuclear factor kappa-B kinase subunit beta (Homo sapiens, UniProt O14920).
T1 sequence (O14920 whole entry): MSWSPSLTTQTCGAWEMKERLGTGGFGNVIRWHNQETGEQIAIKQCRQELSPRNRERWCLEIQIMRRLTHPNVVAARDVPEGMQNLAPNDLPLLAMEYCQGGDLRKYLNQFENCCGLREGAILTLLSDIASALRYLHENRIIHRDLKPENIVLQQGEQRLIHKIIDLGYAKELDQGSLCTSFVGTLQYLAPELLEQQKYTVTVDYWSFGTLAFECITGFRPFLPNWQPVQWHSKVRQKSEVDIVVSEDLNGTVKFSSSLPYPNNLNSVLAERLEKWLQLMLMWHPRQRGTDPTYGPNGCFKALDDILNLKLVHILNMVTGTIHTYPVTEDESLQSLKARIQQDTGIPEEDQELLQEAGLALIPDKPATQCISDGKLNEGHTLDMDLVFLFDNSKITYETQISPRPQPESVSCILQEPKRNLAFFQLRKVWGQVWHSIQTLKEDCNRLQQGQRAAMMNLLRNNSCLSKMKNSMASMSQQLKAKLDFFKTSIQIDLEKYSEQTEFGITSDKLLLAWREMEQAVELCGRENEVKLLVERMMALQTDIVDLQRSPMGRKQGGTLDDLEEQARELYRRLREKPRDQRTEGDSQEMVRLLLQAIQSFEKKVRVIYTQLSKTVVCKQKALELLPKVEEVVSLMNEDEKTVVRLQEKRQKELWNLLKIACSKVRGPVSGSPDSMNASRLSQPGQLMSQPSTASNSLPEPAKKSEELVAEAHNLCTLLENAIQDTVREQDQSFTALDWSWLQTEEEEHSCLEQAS
As to the kind of experiment: Inhibition of phosphorylation of human recombinant Flag-tagged IKKbeta expressed in Sf21 cells after 1 hr by Kinase-Glo luminescent kinase assay. Background: Kinase-Glo measures the ATP left after a reaction by luminescence.

Series [2] in a line: Metabolic stability in 80% human plasma assessed as compound remaining at 5 mg/ml at 15 mins by HPLC analysis. It counts as ADME, cell-free. The settings on record: read-out: Stability.
The nature of series [3]: Stability in simulated gastric fluid at pH 2 assessed as compound remaining measured at 5 mg/ml at 5 hrs by HPLC analysis. It counts as ADME. Particulars: read-out: Stability.
Series [4] is described as follows: Metabolic stability in 80% human plasma assessed as compound remaining at 5 mg/ml at 60 mins by HPLC analysis. The class given is ADME, cell-free. The settings on record: read-out: Stability.
Series [5] in a line: Metabolic stability in 80% human plasma assessed as compound remaining at 5 mg/ml at 30 mins by HPLC analysis. The class given is ADME, cell-free. Particulars: read-out: Stability.
Series [6] is described as follows: Metabolic stability in 80% human plasma assessed as compound remaining at 5 mg/ml at 120 mins by HPLC analysis. It counts as ADME, cell-free. The settings on record: read-out: Stability.
Series [7] can be described thus: Stability in simulated gastric fluid at pH 2 assessed as compound remaining measured at 5 mg/ml at 8 hrs by HPLC analysis. The class given is ADME. The settings on record: read-out: Stability.
A short description of series [8]: Stability in simulated gastric fluid at pH 2 assessed as compound remaining measured at 5 mg/ml at 2 hrs by HPLC analysis. The settings on record: read-out: Stability. The class given is ADME.
Series [9] can be described thus: Stability in simulated gastric fluid at pH 2 assessed as compound remaining measured at 5 mg/ml at 12 hrs by HPLC analysis. The settings on record: read-out: Stability. The class given is ADME.
The target in series [10] is T2, Inhibitor of nuclear factor kappa-B kinase subunit beta (Homo sapiens) (UniProt O14920).
T2 sequence (whole entry): T1 sequence (O14920 whole entry)
The settings on record: A549, 0.5 to 1 uM.
Description: Inhibition of TNFalpha-induced IKKbeta-mediated IkappaB degradation in human A549 cells compound treated for 8 hrs at 0.5 to 1 uM followed by TNFalpha stimulation measured after 30 mins by Western blot analysis relative to control

In the series with A549, `CC(C)=CC(=O)O[C@@H]1CC(C)(C)C[C@H]2C3=CC[C@@H]4[C@@]5(C)CCC(=O)C(C)(C)[C@@H]5CC[C@@]4(C)[C@]3(C)CC[C@@]12C(=O)O` had a pIC50 of 5.92.
Compound `C/C=C(/C)C(=O)O[C@@H]1CC(C)(C)C[C@H]2C3=CC[C@@H]4[C@@]5(C)CCC(=O)C(C)(C)[C@@H]5CC[C@@]4(C)[C@]3(C)CC[C@@]12C(=O)O` [LANTADENE A] gave a negative logarithm of the IC50 (pIC50) in the series on A549 of 5.55.
On to `C/C=C(/C)C(=O)O[C@@H]1CC(C)(C)C[C@H]2C3=CC[C@@H]4[C@@]5(C)CC[C@H](O)C(C)(C)[C@@H]5CC[C@@]4(C)[C@]3(C)CC[C@@]12C(=O)O` [Reduced Lantadene A], for which the pIC50 in series [1] is 5.58; in the series on A549, 6.10.
In turn, `C/C=C(/C)C(=O)O[C@@H]1CC(C)(C)C[C@H]2C3=CC[C@@H]4[C@@]5(C)CC[C@H](OC(=O)c6cccc(F)c6)C(C)(C)[C@@H]5CC[C@@]4(C)[C@]3(C)CC[C@@]12C(=O)O` gave a pIC50 in the series with A549 of less than 5.00.
Compound `C/C=C(/C)C(=O)O[C@@H]1CC(C)(C)C[C@H]2C3=CC[C@@H]4[C@@]5(C)CC[C@H](OC(=O)CCC)C(C)(C)[C@@H]5CC[C@@]4(C)[C@]3(C)CC[C@@]12C(=O)O` gave a negative logarithm of the IC50 (pIC50) in the series on A549 of less than 5.00.
In the series with A549, `CC(C)C(=O)O[C@@H]1CC(C)(C)C[C@H]2C3=CC[C@@H]4[C@@]5(C)CCC(=O)C(C)(C)[C@@H]5CC[C@@]4(C)[C@]3(C)CC[C@@]12C(=O)O` had a pIC50 of less than 5.00.
In the series with A549, `C/C=C(/C)C(=O)O[C@@H]1CC(C)(C)C[C@H]2C3=CC[C@@H]4[C@@]5(C)CC[C@H](OC(=O)c6cccc(OC)c6)C(C)(C)[C@@H]5CC[C@@]4(C)[C@]3(C)CC[C@@]12C(=O)O` showed a negative logarithm of the IC50 (pIC50) of 5.74.
Consider `C/C=C(/C)C(=O)O[C@@H]1CC(C)(C)C[C@H]2C3=CC[C@@H]4[C@@]5(C)CC[C@H](OC(=O)c6ccc(Cl)cc6)C(C)(C)[C@@H]5CC[C@@]4(C)[C@]3(C)CC[C@@]12C(=O)O`, for which, in the series with A549, the pIC50 is 5.88.
The same measure, in the same setting: then `CC(C)=CC(=O)O[C@@H]1CC(C)(C)C[C@H]2C3=CC[C@@H]4[C@@]5(C)CC[C@H](OC(=O)c6cccc(F)c6)C(C)(C)[C@@H]5CC[C@@]4(C)[C@]3(C)CC[C@@]12C(=O)O`, with 5.16.
On to `COc1cccc(C(=O)O[C@H]2CC[C@]3(C)[C@H]4CC=C5[C@@H]6CC(C)(C)C[C@@H](OC(=O)C=C(C)C)[C@]6(C(=O)O)CC[C@@]5(C)[C@]4(C)CC[C@H]3C2(C)C)c1`, for which the negative logarithm of the IC50 (pIC50) was 5.87 in series [1] and 6.01 with A549. Besides, the remaining at 0.25 h, 5 mg/ml in [2] was determined as 70.4%. Besides, in series [3], the remaining at 5 h, 5 mg/ml is 88.2%. In addition, the remaining at 1 h, 5 mg/ml in series [4] came out at 46.7%. The remaining at 0.5 h, 5 mg/ml in series [5] came out at 53.2%. In addition, the values for the remaining at 2 h, 5 mg/ml in [6] and in series [8] were 35.3% and 93%, respectively. Also, the remaining at 8 h, 5 mg/ml in series [7] was 83.3%. For the same compound, in series [9], the remaining at 12 h, 5 mg/ml is 77.2%. The inhibition result in series [10] was “Active”.
`CC(C)=CC(=O)O[C@@H]1CC(C)(C)C[C@H]2C3=CC[C@@H]4[C@@]5(C)CC[C@H](O)C(C)(C)[C@@H]5CC[C@@]4(C)[C@]3(C)CC[C@@]12C(=O)O` [Reduced Lantadene B]: the negative-log IC50 (pIC50) in series [1] (sf21) was 5.37; in the series with A549 it was 6.37.
In the series on A549, `C/C=C(/C)C(=O)O[C@@H]1CC(C)(C)C[C@H]2C3=CC[C@@H]4[C@@]5(C)CC[C@H](OC(=O)c6ccccc6F)C(C)(C)[C@@H]5CC[C@@]4(C)[C@]3(C)CC[C@@]12C(=O)O` showed a pIC50 of 5.69.
The same measure, in the same setting: then `CCCC(=O)O[C@H]1CC[C@]2(C)[C@H]3CC=C4[C@@H]5CC(C)(C)C[C@@H](OC(=O)C=C(C)C)[C@]5(C(=O)O)CC[C@@]4(C)[C@]3(C)CC[C@H]2C1(C)C`, with less than 5.00.
On the same count and under the same terms, the value for `CC(C)=CC(=O)O[C@@H]1CC(C)(C)C[C@H]2C3=CC[C@@H]4[C@@]5(C)CC[C@H](OC(=O)C(C)C)C(C)(C)[C@@H]5CC[C@@]4(C)[C@]3(C)CC[C@@]12C(=O)O` was 5.59; that for `CCCC(=O)O[C@@H]1CC(C)(C)C[C@H]2C3=CC[C@@H]4[C@@]5(C)CCC(=O)C(C)(C)[C@@H]5CC[C@@]4(C)[C@]3(C)CC[C@@]12C(=O)O` was less than 5.00; that for `CC(C)=CC(=O)O[C@@H]1CC(C)(C)C[C@H]2C3=CC[C@@H]4[C@@]5(C)CC[C@H](OC(=O)c6ccccc6F)C(C)(C)[C@@H]5CC[C@@]4(C)[C@]3(C)CC[C@@]12C(=O)O` was 5.71.
As to `CC(C)=CC(=O)O[C@@H]1CC(C)(C)C[C@H]2C3=CC[C@@H]4[C@@]5(C)CC[C@H](OC(=O)c6ccc(Cl)cc6)C(C)(C)[C@@H]5CC[C@@]4(C)[C@]3(C)CC[C@@]12C(=O)O`, the results for the pIC50 (in [1]; in the series on A549) were 5.81 and 5.95, respectively. For the same compound, in [2], the remaining at 0.25 h, 5 mg/ml is 70.2%. Moreover, the remaining at 5 h, 5 mg/ml in series [3] was 86.5%. The remaining at 1 h, 5 mg/ml in [4] is 44.3%. Also, in series [5], the remaining at 0.5 h, 5 mg/ml turned out to be 52.2%. Moreover, the results for the remaining at 2 h, 5 mg/ml in series [6] and in series [8] were 32.3% and 92.2%, respectively. The remaining at 8 h, 5 mg/ml in series [7] is 80.3%. Moreover, the remaining at 12 h, 5 mg/ml in [9] was 72.8%.
Regarding `C/C=C(/C)C(=O)O[C@@H]1CC(C)(C)C[C@H]2C3=CC[C@@H]4[C@@]5(C)CC[C@H](OC(=O)C(C)C)C(C)(C)[C@@H]5CC[C@@]4(C)[C@]3(C)CC[C@@]12C(=O)O`, the negative-log IC50 (pIC50) in the series on A549 is less than 5.00.
Take `CC1(C)C[C@@H](O)[C@]2(C(=O)O)CC[C@]3(C)C(=CC[C@@H]4[C@@]5(C)CCC(=O)C(C)(C)[C@@H]5CC[C@]43C)[C@@H]2C1`: the negative logarithm of the IC50 (pIC50) in the series on A549 is less than 5.00.

One may read the pIC50 as the IC50 on a negative log10 scale, so that one unit is a factor of ten.
